Read-outs that look alike come from different tables or passages of the source.
Assays:
human P450 17A1 [1] = details: read-out: IC50, progesterone 17α-hydroxylation, cited from earlier work
human P450 17A1 [2] = details: cited from earlier work; for IC50: read-out: IC50, 17α-OH pregnenolone to DHEA (lyase)
human P450 17A1 [3] = biological target: T1, human P450 17A1 (Homo sapiens, UniProt P05093); experiment: Inhibition as a function of preincubation time with abiraterone, CYP17A1R Bactosomes; format: biochemical; details: 50 nM abiraterone, 10 nM P450 17A1 Bactosomes
T1 sequence (P05093 1-508): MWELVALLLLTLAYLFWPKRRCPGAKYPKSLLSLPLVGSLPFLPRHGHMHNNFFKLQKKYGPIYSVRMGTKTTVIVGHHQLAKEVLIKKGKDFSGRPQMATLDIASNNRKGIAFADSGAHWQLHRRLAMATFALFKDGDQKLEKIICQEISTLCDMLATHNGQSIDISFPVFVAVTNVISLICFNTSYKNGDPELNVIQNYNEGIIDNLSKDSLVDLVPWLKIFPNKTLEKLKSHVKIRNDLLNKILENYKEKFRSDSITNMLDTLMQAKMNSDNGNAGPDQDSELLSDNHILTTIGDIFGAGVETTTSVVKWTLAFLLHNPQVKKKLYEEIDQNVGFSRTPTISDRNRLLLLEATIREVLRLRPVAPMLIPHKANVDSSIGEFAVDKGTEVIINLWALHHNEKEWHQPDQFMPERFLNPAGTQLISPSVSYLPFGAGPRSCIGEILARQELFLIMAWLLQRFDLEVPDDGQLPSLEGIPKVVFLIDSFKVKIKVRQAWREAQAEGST
Protocol: These experiments utilized bacterial membranes (CYP17A1R Bactosomes) as the source of P450 and POR. Experiments were done with 10 nM P450 17A1 in reaction volumes of 0.5 ml, with 100 nM b5 added. Abiraterone was added to 50 nM, and then, the reactions were initiated by the addition of an NADPH-generating system supplemented with either 20 μM progesterone (A) or 17α-OH pregnenolone (B) at the indicated times and proceeded for 5 min (at 37 and 23 °C, respectively).
Steady-state kinetic inhibition assays performed with Cypex CYP17A1R Bactosomes followed largely the same procedure with the following exception: the enzymatic system was prepared by preincubating (23 °C) P450 17A1 (CYP17A1R Bactosomes; 10 nM P450), b5 (100 nM), and potassium phosphate buffer (50 mM, pH 7.4) with abiraterone (50 nM) for varying lengths of time (0.25–30 min). Reactions (5 min) were then initiated with the NADPH-generating system described previously and subjected to the same procedure.

human P450 17A1 [4] = biological target: T2, human P450 17A1 (Homo sapiens, UniProt P05093)
T2 sequence (P05093 24-508 limits assumed): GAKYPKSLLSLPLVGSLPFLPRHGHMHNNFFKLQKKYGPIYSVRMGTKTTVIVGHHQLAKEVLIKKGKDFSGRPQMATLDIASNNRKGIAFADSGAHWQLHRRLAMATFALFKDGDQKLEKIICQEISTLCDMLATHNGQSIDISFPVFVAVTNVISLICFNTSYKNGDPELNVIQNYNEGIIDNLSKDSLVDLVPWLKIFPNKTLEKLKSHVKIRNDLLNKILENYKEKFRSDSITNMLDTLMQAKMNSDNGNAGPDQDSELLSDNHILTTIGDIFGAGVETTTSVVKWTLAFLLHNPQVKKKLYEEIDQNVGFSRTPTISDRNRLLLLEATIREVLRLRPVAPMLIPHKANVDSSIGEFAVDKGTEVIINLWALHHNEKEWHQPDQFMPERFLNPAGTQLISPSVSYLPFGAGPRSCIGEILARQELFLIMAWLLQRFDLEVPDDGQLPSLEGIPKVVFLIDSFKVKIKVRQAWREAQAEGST

human P450 17A1 [5] = biological target: T2, human P450 17A1; experiment: IC50 determination, 17α-OH pregnenolone lyase activity (DHEA formation), reconstituted P450 17A1/POR/b5; format: biochemical; details: for Ki: IC50 = Ki [1 + (S/Km)] for competitive inhibition, Km from Ref. 37, read-out: Predicted Ki, 17α-OH pregnenolone lyase; for Ratio (17-hydroxylation/lyase) of IC50: This work
Protocol: In the case of catalytic assays, the products of each reaction were redissolved in a solution of CF3CO2H (7 mM, prepared as a 0.1% v/v solution in C2H5OH) and dansyl hydrazine (10 mM, prepared in CH3OH) in amber glass vials (sealed and capped) and were allowed to react overnight (16 h) in the dark at room temperature (23 °C). The reaction was quenched with acetone (50 mM) followed by incubation at room temperature for 30 min. NaOH was added to 100 mM, and the products of the reactions were extracted into CH2Cl2 (1.0 ml), of which 0.8 ml of the organic (lower) layers was transferred to fresh amber vials and dried under a stream of nitrogen. The residues were redissolved in a mixture of a 0.1% HCO2H solution (aqueous) and CH3CN (0.1 ml; 1:1 dilution, v/v) and transferred to ultra performance LC (UPLC) vials for analysis. […] Data were processed using MassLynx software (Waters) (Fig. S5).
(§1) A 0.5 ml reaction was prepared in most cases by the reconstitution of P450 17A1 (0.02 μM), POR (0.5 μM), and b5 (0.5 μM) with freshly sonicated L-α-dilauroyl-sn-glycero-3-phosphocholine (30 μM). The mixture incubated on ice for 10 min, followed by the addition of potassium phosphate buffer (to a final concentration of 50 mM), substrate (5 μM progesterone or 1.5 μM 17α-OH pregnenolone ([37])), and water. Stock progesterone was prepared in CH3OH and was diluted to a final concentration of 5 μM (0.5% CH3OH, v/v). […] Reactions (in duplicate) were preincubated for 5 min at 37 °C with shaking before being initiated with an NADPH-generating system composed of 0.5 mM NADP^+, two units of yeast glucose 6-phosphate dehydrogenase ml^−1, and 10 mM glucose 6-phosphate ([56]). The inhibitor abiraterone was added immediately prior to the 5-min preincubation stage because of the rapid onset of inhibition. Reactions (5 min) were quenched by immersion in an ice bath, with the addition of CH2Cl2 (2.0 ml), and were centrifuged (10^3g, 10 min) to separate layers. The organic (bottom) phases were removed (1.6 ml) and transferred into clean vials, and the solvent was removed under a stream of nitrogen. Reactions were resuspended in a CH3CN/sodium acetate mixture (25 mM, pH 3.7) (1:1, v/v) and were transferred to vials for UPLC analysis. […] Substrate and product were detected using a Waters Acuity photodiode array system at 240 nm. Data were processed using the MassLynx software, and percent conversion of substrate to product was calculated. The data were normalized to the uninhibited reaction, which was set at 100% activity.
Experimental conditions for the lyase reaction were identical to the hydroxylation reaction with the following exceptions: 17α-OH pregnenolone (1.5 μM) was used as the substrate, and following extraction, the product of the reaction was derivatized with dansyl hydrazine as described previously.

human P450 17A1 [6] = biological target: T2, human P450 17A1; experiment: KinTek Explorer modeling of kinetics of inhibition of progesterone 17α-hydroxylation; format: biochemical; details: fit of Figure 10E data; E 2 μM, S 5 μM progesterone, I 1 μM; read-out: Kd as a competitive inhibitor (value giving adequate model fits)
Protocol: The results of the progesterone 17α-hydroxylation abiraterone inhibition experiment in Figure 10E were analyzed further using KinTek Explorer software (KinTek; Fig. 13).
The lines were fit to the model shown, with the indicated rate and dissociation constants. The enzyme concentration (E) was 2 μM, substrate concentration (S) was 5 μM, and inhibitor concentration (I, abiraterone) was 1 μM. Fitting was done with KinTek Explorer.

human P450 17A1 [7] = biological target: T2, human P450 17A1; experiment: Rates of onset of inhibition, pre-steady-state rapid chemical quench; format: biochemical
Protocol: In the control experiment, ES is not inhibited (no I present). […] Both progesterone 17α-hydroxylation (Fig. 10) and 17α-OH pregnenolone lyase activity (Fig. 11) were measured without and with all five inhibitors.
Reactions were performed using a KinTek RQF-3 rapid quench apparatus (KinTek) with the reaction loop set at position 7 and the temperature at 37 °C. The RQF-3 is a rapid mixing device that initiates a reaction by forcing equal volumes of two mixing syringes into a reaction loop. After pausing for the indicated incubation time, the reaction is then quenched and expelled from the apparatus. The reaction mixture (containing enzyme and substrate [in CH3OH, 1% (v/v)]) was initiated with an equal volume (19 μl) of NADPH solution (2 mM), effectively halving the initial concentration of all reaction components. When appropriate, inhibitor (in CH3OH) was added to the NADPH solution (in CH3OH), taking care to keep the total CH3OH composition of the final reaction to 1% (v/v). The substrates progesterone (5 μM) and 17α-OH pregnenolone (1.5 μM) were allowed to react for different lengths of time (0.1–5 and 2–60 s, respectively) prior to quenching with 160 μl of 1 M HCl. Five replicates of each time point were collected into vials to increase the detection sensitivity of the respective product at the shorter time points.

P450 17A1 = details: cited from earlier work
human P450 17A1 [8] = biological target: T2, human P450 17A1; experiment: IC50 determination, progesterone 17α-hydroxylation (17α-OH progesterone formation), reconstituted P450 17A1/POR/b5; format: biochemical; details: for IC50: IC50 (95% CI limits), progesterone 17α-hydroxylation, steady-state, 0.02 μM P450 17A1, 5 μM progesterone, 37 °C; for Ki: IC50 = Ki [1 + (S/Km)] for competitive inhibition, Km from Ref. 37, read-out: Predicted Ki, progesterone 17α-hydroxylation
Protocol: as §1

human P450 17A1 [9] = biological target: T2, human P450 17A1; details: 250 nM P450 17A1 and 250 nM inhibitor, 23 °C
[10] = IC50 (95% CI limits), 17α-OH pregnenolone lyase, steady-state, 0.02 μM P450 17A1, 1.5 μM 17α-OH pregnenolone, 37 °C
[11] = range of other studies, ref Other studies (2) Petrunak et al. 2017

Row | IC50 (human P450 17A1 [5]; [10]) [nM] | Ki (human P450 17A1 [5]) [nM] | Ratio (17-hydroxylation/lyase) of IC50 (human P450 17A1 [5]) | IC50 (human P450 17A1 [8]) [nM] | Ki (human P450 17A1 [8]) [nM] | SMILES | IC50 (human P450 17A1 [1]; ref (2) Petrunak et al. 2017) [nM] | Ratio (17-hydroxylation/lyase) of IC50 (human P450 17A1 [2]; ref (2) Petrunak et al. 2017) | IC50 (human P450 17A1 [2]; ref (2) Petrunak et al. 2017) [nM] | other results
1 |  |  |  |  |  | CC(C)[C@@](O)(c1ccc2cc(OC(F)F)c(OC(F)F)cc2c1)c1cn[nH]n1 [(R)-Seviteronel] | 11300 | 2.3 | 5000 | 
2 | 4.2 | 3.4 | 0.76 | 3.2 | 1.3 | C[C@]12CC[C@H](O)CC1=CC[C@@H]1[C@@H]2CC[C@]2(C)C(c3cccnc3)=CC[C@@H]12 [Abiraterone, 17-(3-pyridyl)androsta-5,16-dien-3β-ol] | 76 | 2.1 | 36 | Inhibition of 17α-OH pregnenolone lyase versus preincubation time (human P450 17A1 [3]; 100 nM b5, 20 μM 17α-OH pregnenolone, 23 °C): almost completely inhibited after 15 s; Inhibition of progesterone 17α-hydroxylation versus preincubation time (human P450 17A1 [3]; 100 nM b5, 20 μM progesterone, 37 °C): almost completely inhibited after 15 s; Further spectral changes after formation of final complex (human P450 17A1 [4]; 2 μM P450 17A1 and 2 μM abiraterone, spectra 1 to 57 min after mixing): no further spectral changes were observed over a period of 1 h; Kd (human P450 17A1 [6]): 1 nM; Time within which inhibition occurred (human P450 17A1 [7]; Figs. 10, 11 and 13): less than 1 s; Earliest time points at which inhibition was noted (human P450 17A1 [7]; progesterone 17α-hydroxylation, 1 μM abiraterone, 2 μM P450): ≤ 100 ms; koff (P450 17A1): 0.0093 min⁻¹; t1/2 (from koff) (P450 17A1): 5 h; Ratio (17-hydroxylation/lyase) of IC50 (human P450 17A1 [2]; [11]): 0.1-1.4; IC50 (human P450 17A1 [2]; [11]): 2.9 to 800 nM
3 | 99 | 81 | 0.61 | 60 | 23 | Clc1ccccc1C(c1ccccc1)(c1ccccc1)n1ccnc1 [Clotrimazole] |  |  |  | Time required for completion of spectral changes on binding (human P450 17A1 [4]; 2 μM P450 17A1 mixed with inhibitor, 23 °C): ~30 s; Lag in recovery of 17α-OH pregnenolone lyase from 1:1 inhibitor complex (human P450 17A1 [9]; 20 μM 17α-OH pregnenolone): Any suggestion of lags is no greater than in the uninhibited reactions; Lag in recovery of progesterone 17α-hydroxylation from 1:1 inhibitor complex (human P450 17A1 [9]; 20 μM progesterone): Any suggestion of lags is no greater than in the uninhibited reactions; IC50 (human P450 17A1 [1]; ref (5) Munkboel et al. 2019): 180 nM; Ratio (17-hydroxylation/lyase) of IC50 (human P450 17A1 [2]; ref (5) Munkboel et al. 2019): 3.3; IC50 (human P450 17A1 [2]; ref (5) Munkboel et al. 2019): 56 nM
4 |  |  |  |  |  | C[C@]12CC[C@H](O)CC1=CC[C@@H]1[C@@H]2CC[C@]2(C)C(n3cnc4ccccc43)=CC[C@@H]12 [Galaterone] | 130 | 1.3 | 100 | 
5 | 3430 | 2810 | 1.0 | 3500 | 1370 | CC(C)[C@](O)(c1ccc2cc(OC(F)F)c(OC(F)F)cc2c1)c1c[nH]nn1 [Seviteronel, (S)-Seviteronel] | 1170 | 2.7 | 430 | IC50 (human P450 17A1 [5]; This work (Fig. 3, Table 1), read-out: IC50, 17α-OH pregnenolone to DHEA (lyase)): 3400 nM; IC50 (human P450 17A1 [1]; ref (4) Rafferty et al. 2014): 690 nM; Ratio (17-hydroxylation/lyase) of IC50 (human P450 17A1 [2]; ref (4) Rafferty et al. 2014): 10; IC50 (human P450 17A1 [2]; ref (4) Rafferty et al. 2014): 69 nM
6 |  |  |  |  |  | CC(C)(C)NC(=O)[C@@H]1CN(Cc2cccnc2)CCN1C[C@@H](O)C[C@@H](Cc1ccccc1)C(=O)N[C@H]1c2ccccc2C[C@H]1O [indinavir] |  |  |  | Spectral interaction with P450 17A1 (human P450 17A1 [4]): did not show strong enough spectral interaction
7 |  |  |  |  |  | CCC(C)n1ncn(-c2ccc(N3CCN(c4ccc(OCC5COC(Cn6cncn6)(c6ccc(Cl)cc6Cl)O5)cc4)CC3)cc2)c1=O (stereo not shown) [itraconazole] |  |  |  | Spectral interaction with P450 17A1 (human P450 17A1 [4]): did not show strong enough spectral interaction

Source: article PMC8350020, “Stepwise binding of inhibitors to human cytochrome P450 17A1 and rapid kinetics of inhibition of androgen biosynthesis” (The Journal of Biological Chemistry, 2021)
